Test results published in ChEMBL document CHEMBL1201861, “Genomics of Drug Sensitity in Cancer screening data, Wellcome Trust Sanger Institute”.

Legend:
Experiment in all cases: cells
SW 962 = format: functional, cell-based, Homo sapiens; conditions: Homo sapiens, SW 962
Description: SANGER: Inhibition of human SW962 cell growth in a cell viability assay.

EW-1 = format: functional, cell-based, Homo sapiens; conditions: Homo sapiens, EW-1
Description: SANGER: Inhibition of human EW-1 cell growth in a cell viability assay.

SW1463 = format: functional, cell-based, Homo sapiens; conditions: Homo sapiens, SW1463
Description: SANGER: Inhibition of human SW1463 cell growth in a cell viability assay.

NCI-H446 = format: functional, cell-based; conditions: Homo sapiens
Description: SANGER: Inhibition of human NCI-H446 cell growth in a cell viability assay.

PC-14 = format: functional, cell-based, Homo sapiens; conditions: Homo sapiens, PC-14
Description: SANGER: Inhibition of human PC-14 cell growth in a cell viability assay.

PA-1 = format: functional, cell-based, Homo sapiens; conditions: Homo sapiens, PA-1
Description: SANGER: Inhibition of human PA-1 cell growth in a cell viability assay.

TGBC24TKB = format: functional, cell-based, Homo sapiens; conditions: Homo sapiens, TGBC24TKB
Description: SANGER: Inhibition of human TGBC24TKB cell growth in a cell viability assay.

EGI-1 = format: functional, cell-based, Homo sapiens; conditions: Homo sapiens, EGI-1
Description: SANGER: Inhibition of human EGI-1 cell growth in a cell viability assay.

Lu-65 = format: functional, cell-based; conditions: Homo sapiens
Description: SANGER: Inhibition of human LU-65 cell growth in a cell viability assay.

NEC8 = format: functional, cell-based, Homo sapiens; conditions: Homo sapiens, NEC8
Description: SANGER: Inhibition of human NEC8 cell growth in a cell viability assay.

PSN1 = format: functional, cell-based, Homo sapiens; conditions: Homo sapiens, PSN1
Description: SANGER: Inhibition of human PSN1 cell growth in a cell viability assay.

NB14 = format: functional, cell-based; conditions: Homo sapiens
Description: SANGER: Inhibition of human NB14 cell growth in a cell viability assay.

HLE = format: functional, cell-based, Homo sapiens; conditions: Homo sapiens, HLE
Description: SANGER: Inhibition of human HLE cell growth in a cell viability assay.

KY821 = format: functional, cell-based; conditions: Homo sapiens
Description: SANGER: Inhibition of human KY821 cell growth in a cell viability assay.

LK-2 = format: functional, cell-based, Homo sapiens; conditions: Homo sapiens, LK-2
Description: SANGER: Inhibition of human LK-2 cell growth in a cell viability assay.

HCC1937 = format: functional, cell-based, Homo sapiens; conditions: Homo sapiens, HCC1937
Description: SANGER: Inhibition of human HCC1937 cell growth in a cell viability assay.

SAS = format: functional, cell-based, Homo sapiens; conditions: Homo sapiens, SAS
Description: SANGER: Inhibition of human SAS cell growth in a cell viability assay.

EOL1 = format: functional, cell-based; conditions: Homo sapiens
Description: SANGER: Inhibition of human EoL-1-cell cell growth in a cell viability assay.

NCI-H661 = format: functional, cell-based, Homo sapiens; conditions: Homo sapiens, NCI-H661
Description: SANGER: Inhibition of human NCI-H661 cell growth in a cell viability assay.

SK-MEL-1 = format: functional, cell-based; conditions: Homo sapiens
Description: SANGER: Inhibition of human SK-MEL-1 cell growth in a cell viability assay.

NB17 = format: functional, cell-based; conditions: Homo sapiens
Description: SANGER: Inhibition of human NB17 cell growth in a cell viability assay.

P12-Ichikawa = format: functional, cell-based; conditions: Homo sapiens
KU-19-19 = format: functional, cell-based, Homo sapiens; conditions: Homo sapiens, KU-19-19
Description: SANGER: Inhibition of human KU-19-19 cell growth in a cell viability assay.

NCI-H1395 = format: functional, cell-based, Homo sapiens; conditions: Homo sapiens, NCI-H1395
Description: SANGER: Inhibition of human NCI-H1395 cell growth in a cell viability assay.

SiHa = format: functional, cell-based, Homo sapiens; conditions: Homo sapiens, SiHa
Description: SANGER: Inhibition of human SiHa cell growth in a cell viability assay.

NCI-H1993 = format: functional, cell-based, Homo sapiens; conditions: Homo sapiens, NCI-H1993
Description: SANGER: Inhibition of human NCI-H1993 cell growth in a cell viability assay.

J82 = format: functional, cell-based; conditions: Homo sapiens
Description: SANGER: Inhibition of human J82 cell growth in a cell viability assay.

EFO-27 = format: functional, cell-based, Homo sapiens; conditions: Homo sapiens, EFO-27
Description: SANGER: Inhibition of human EFO-27 cell growth in a cell viability assay.

TE-9 = format: functional, cell-based, Homo sapiens; conditions: Homo sapiens, TE-9
Description: SANGER: Inhibition of human TE-9 cell growth in a cell viability assay.

ES1 = format: functional, cell-based, Homo sapiens; conditions: Homo sapiens, ES1
Description: SANGER: Inhibition of human ES1 cell growth in a cell viability assay.

5637 = format: functional, cell-based, Homo sapiens; conditions: Homo sapiens
Description: SANGER: Inhibition of human 5637 cell growth in a cell viability assay.

HCC2218 = format: functional, cell-based; conditions: Homo sapiens
Description: SANGER: Inhibition of human HCC2218 cell growth in a cell viability assay.

RMG-I = format: functional, cell-based, Homo sapiens; conditions: Homo sapiens, RMG-I
Description: SANGER: Inhibition of human RMG-I cell growth in a cell viability assay.

LS-1034 = format: functional, cell-based, Homo sapiens; conditions: Homo sapiens, LS-1034
Description: SANGER: Inhibition of human LS-1034 cell growth in a cell viability assay.

CGTH-W-1 = format: functional, cell-based, Homo sapiens; conditions: Homo sapiens, CGTH-W-1
Description: SANGER: Inhibition of human CGTH-W-1 cell growth in a cell viability assay.

MC-IXC = format: functional, cell-based, Homo sapiens; conditions: Homo sapiens, MC-IXC
Description: SANGER: Inhibition of human MC-IXC cell growth in a cell viability assay.

ML-2 = format: functional, cell-based; conditions: Homo sapiens
Description: SANGER: Inhibition of human ML-2 cell growth in a cell viability assay.

A-427 = format: functional, cell-based, Homo sapiens; conditions: Homo sapiens, A-427
Description: SANGER: Inhibition of human A427 cell growth in a cell viability assay.

NCI-H1770 = format: functional, cell-based; conditions: Homo sapiens
Description: SANGER: Inhibition of human NCI-H1770 cell growth in a cell viability assay.

786-0 = format: functional, cell-based, Homo sapiens; conditions: Homo sapiens
Description: SANGER: Inhibition of human 786-0 cell growth in a cell viability assay.

EW-11 = format: functional, cell-based, Homo sapiens; conditions: Homo sapiens, EW-11
Description: SANGER: Inhibition of human EW-11 cell growth in a cell viability assay.

MDA-MB-415 = format: functional, cell-based; conditions: Homo sapiens
OVCAR-8 = format: functional, cell-based, Homo sapiens; conditions: Homo sapiens, OVCAR-8
Description: SANGER: Inhibition of human OVCAR-8 cell growth in a cell viability assay.

DSH1 = format: functional, cell-based, Homo sapiens; conditions: Homo sapiens, DSH1
Description: SANGER: Inhibition of human DSH1 cell growth in a cell viability assay.

CHL-1 = format: functional, cell-based, Homo sapiens; conditions: Homo sapiens, CHL-1
Description: SANGER: Inhibition of human CHL-1 cell growth in a cell viability assay.

COLO-320-HSR = format: functional, cell-based; conditions: Homo sapiens
Description: SANGER: Inhibition of human COLO-320-HSR cell growth in a cell viability assay.

SNU1 = format: functional, cell-based; conditions: Homo sapiens
Description: SANGER: Inhibition of human NCI-SNU-1 cell growth in a cell viability assay.

HGC-27 = format: functional, cell-based, Homo sapiens; conditions: Homo sapiens, HGC-27
Description: SANGER: Inhibition of human HGC-27 cell growth in a cell viability assay.

CAKI-1 = format: functional, cell-based, Homo sapiens; conditions: Homo sapiens, CAKI-1
Description: SANGER: Inhibition of human CAKI-1 cell growth in a cell viability assay.

HOP-62 = format: functional, cell-based, Homo sapiens; conditions: Homo sapiens, HOP-62
Description: SANGER: Inhibition of human HOP-62 cell growth in a cell viability assay.

LB373-MEL-D = format: functional, cell-based, Homo sapiens; conditions: Homo sapiens, LB373-MEL-D
Description: SANGER: Inhibition of human LB373-MEL-D cell growth in a cell viability assay.

MFH-ino = format: functional, cell-based; conditions: Homo sapiens
Description: SANGER: Inhibition of human MFH-ino cell growth in a cell viability assay.

HuTu80 = format: functional, cell-based, Homo sapiens, HUTU-80; conditions: Homo sapiens, HuTu80
Description: SANGER: Inhibition of human HUTU-80 cell growth in a cell viability assay.

## COc1ccc(-c2ccc3c(N4CCOC[C@@H]4C)nc(N4CCOC[C@@H]4C)nc3n2)cc1CO [AZD-8055]
SW 962
  IC50: 0.472 µM
EW-1
  IC50: 1.61 µM
SW1463
  IC50: > 2 µM
NCI-H446
  IC50: 1.33 µM
PC-14
  IC50: 0.59 µM
PA-1
  IC50: 0.336 µM
TGBC24TKB
  IC50: 1.86 µM
EGI-1
  IC50: 0.135 µM
Lu-65
  IC50: 1.26 µM
NEC8
  IC50: 0.417 µM
PSN1
  IC50: 0.771 µM
NB14
  IC50: 0.164 µM
HLE
  IC50: 0.748 µM
KY821
  IC50: 1.57 µM
LK-2
  IC50: 0.268 µM
HCC1937
  IC50: > 2 µM
SAS
  IC50: > 2 µM
EOL1
  IC50: 0.0657 µM
NCI-H661
  IC50: 1.45 µM
SK-MEL-1
  IC50: > 2 µM
NB17
  IC50: > 2 µM
P12-Ichikawa
  IC50: 1.03 µM
KU-19-19
  IC50: 0.851 µM
NCI-H1395
  IC50: > 2 µM
SiHa
  IC50: > 2 µM
NCI-H1993
  IC50: > 2 µM
J82
  IC50: > 2 µM
EFO-27
  IC50: 0.68 µM
TE-9
  IC50: > 2 µM
ES1
  IC50: 0.555 µM
5637
  IC50: 1.77 µM
HCC2218
  IC50: 0.207 µM
RMG-I
  IC50: > 2 µM
LS-1034
  IC50: > 2 µM
CGTH-W-1
  IC50: 1.56 µM
MC-IXC
  IC50: 0.727 µM
ML-2
  IC50: 0.585 µM
A-427
  IC50: 0.962 µM
NCI-H1770
  IC50: 0.802 µM
786-0
  IC50: 1.09 µM
EW-11
  IC50: 1.62 µM
MDA-MB-415
  IC50: 1.22 µM
OVCAR-8
  IC50: > 2 µM
DSH1
  IC50: > 2 µM
CHL-1
  IC50: 0.327 µM
COLO-320-HSR
  IC50: > 2 µM
SNU1
  IC50: 0.323 µM
HGC-27
  IC50: 0.264 µM
CAKI-1
  IC50: 0.746 µM

## O=c1cc(-c2cccc3c2Sc2ccccc2S3)oc(N2CCOCC2)c1 [KU-55933]
SW 962
  IC50: > 10 µM
EW-1
  IC50: > 10 µM
SW1463
  IC50: > 10 µM
NCI-H446
  IC50: > 10 µM
PC-14
  IC50: > 10 µM
PA-1
  IC50: > 10 µM
TGBC24TKB
  IC50: > 10 µM
EGI-1
  IC50: > 10 µM
HOP-62
  IC50: > 10 µM
NEC8
  IC50: > 10 µM
PSN1
  IC50: > 10 µM
NB14
  IC50: > 10 µM
HLE
  IC50: > 10 µM
LB373-MEL-D
  IC50: > 10 µM
LK-2
  IC50: > 10 µM
HCC1937
  IC50: > 10 µM
SAS
  IC50: > 10 µM
NCI-H661
  IC50: > 10 µM
SK-MEL-1
  IC50: > 10 µM
NB17
  IC50: > 10 µM
P12-Ichikawa
  IC50: > 10 µM
KU-19-19
  IC50: > 10 µM
NCI-H1395
  IC50: > 10 µM
SiHa
  IC50: > 10 µM
NCI-H1993
  IC50: > 10 µM
J82
  IC50: > 10 µM
EFO-27
  IC50: > 10 µM
TE-9
  IC50: > 10 µM
ES1
  IC50: > 10 µM
5637
  IC50: > 10 µM
RMG-I
  IC50: > 10 µM
LS-1034
  IC50: > 10 µM
CGTH-W-1
  IC50: > 10 µM
MC-IXC
  IC50: > 10 µM
MFH-ino
  IC50: > 10 µM
A-427
  IC50: > 10 µM
NCI-H1770
  IC50: > 10 µM
786-0
  IC50: > 10 µM
EW-11
  IC50: > 10 µM
MDA-MB-415
  IC50: > 10 µM
OVCAR-8
  IC50: > 10 µM
DSH1
  IC50: > 10 µM
CHL-1
  IC50: > 10 µM
COLO-320-HSR
  IC50: > 10 µM
SNU1
  IC50: > 10 µM
HGC-27
  IC50: > 10 µM
HuTu80
  IC50: > 10 µM
CAKI-1
  IC50: > 10 µM

## COc1ccc(C2=N[C@@H](c3ccc(Cl)cc3)[C@@H](c3ccc(Cl)cc3)N2C(=O)N2CCNC(=O)C2)c(OC(C)C)c1 [NUTLIN-3]
SW 962
  IC50: > 8 µM
EW-1
  IC50: > 8 µM
SW1463
  IC50: > 8 µM
NCI-H446
  IC50: > 8 µM
PC-14
  IC50: > 8 µM
PA-1
  IC50: 0.871 µM
TGBC24TKB
  IC50: > 8 µM
EGI-1
  IC50: > 8 µM
Lu-65
  IC50: > 8 µM
NEC8
  IC50: 1.22 µM
PSN1
  IC50: > 8 µM
NB14
  IC50: > 8 µM
HLE
  IC50: > 8 µM
KY821
  IC50: > 8 µM
LK-2
  IC50: > 8 µM
HCC1937
  IC50: > 8 µM
SAS
  IC50: > 8 µM
EOL1
  IC50: 1.27 µM
NCI-H661
  IC50: 7.87 µM
SK-MEL-1
  IC50: > 8 µM
NB17
  IC50: 4.32 µM
P12-Ichikawa
  IC50: > 8 µM
KU-19-19
  IC50: > 8 µM
NCI-H1395
  IC50: > 8 µM
SiHa
  IC50: > 8 µM
NCI-H1993
  IC50: > 8 µM
J82
  IC50: > 8 µM
EFO-27
  IC50: > 8 µM
TE-9
  IC50: > 8 µM
ES1
  IC50: > 8 µM
5637
  IC50: > 8 µM
HCC2218
  IC50: 7.63 µM
RMG-I
  IC50: > 8 µM
LS-1034
  IC50: > 8 µM
CGTH-W-1
  IC50: > 8 µM
MC-IXC
  IC50: > 8 µM
ML-2
  IC50: 2.57 µM
A-427
  IC50: 6.88 µM
NCI-H1770
  IC50: > 8 µM
786-0
  IC50: > 8 µM
EW-11
  IC50: > 8 µM
MDA-MB-415
  IC50: > 8 µM
OVCAR-8
  IC50: > 8 µM
DSH1
  IC50: > 8 µM
CHL-1
  IC50: > 8 µM
COLO-320-HSR
  IC50: > 8 µM
SNU1
  IC50: 3.28 µM
HGC-27
  IC50: > 8 µM
CAKI-1
  IC50: 3.13 µM
